Assay results taken from US20070161550A1, “Antiviral compositions which inhibit paramyxovirus infection” (priority 2003, published 2007).

Columns and labels:
[1] = system: RSV A2; experiment: Inhibition of virus infectivity in vivo, lung virus titers in BALB/c mice; conditions: for inhibition of RSV infection in vivo (in words): BALB/c mouse model; for reduced infectivity, fold: co-administration with RSV (Table 16)
Protocol: Inhibition of virus infectivity in vivo. […] All administrations were intranasal (0.05 ml) and performed under injected anesthesia (60 mg ketamine/kg and 2.5 mg xylazine/kg (The Butler Co.; Dublin Ohio)). Four days later the lungs were removed, homogenized, clarified by low speed centrifugation, snap frozen, and stored at −70° C. until plaque assays were performed using HEp-2 cell monolayers (Hancock et al. 1996). All animals were housed in a facility accredited by the American Association for Accreditation of Laboratory Animal Care.
(§1) Plaque assay. Virus plaques were visualized as previously described (Hancock et al. 1996) using anti-F protein (L4) mAb (Paradiso et al., 1991; Walsh and Hruska, 1983). Thereafter, cells were rinsed with blotto blocking agent (PBS, 5% powdered milk) and incubated with horseradish peroxidase-conjugated goat anti-mouse IgG (Kirkegaard and Perry Laboratories, Inc.; Gaithersburg, Md.). Bound antibody was detected using 0.05% 4-chloro-1-naphtol containing 0.1% H2O2 in PBS. After enumeration of plaques, the mean percent infectivity (±1 standard deviation of triplicate wells) was calculated relative to monolayers exposed to virus in culture medium alone without chemokine or anti-chemokine receptor antibody.

[2] = system: HEp-2 cells; experiment: Binding of biotinylated CCL5 peptides to HEp-2 cell monolayers (ELISA); set-up: species or system human; conditions: FIG. 3, viable HEp-2 cells at 4° C.
Protocol: Interaction of CCL5 peptides with HEp-2 cells. An ELISA was used to assess the relative binding of synthetic peptides to HEp-2 cell monolayers. In brief, 96-well plates (Falcon) were seeded with 3×10^4 HEp-2 cells per well in 0.2 ml of complete medium. After overnight incubation (37° C., 5% CO2), the monolayers were cooled on ice for approximately 15 minutes. The biotinylated peptides were added to duplicate wells in ascending doses from 0.49 μg to 500 μg per ml DMEM (supplemented with 1% FBS, 2% penicillin/streptomycin, and 2 mM L-glutamine) and incubated at 4° C. for 1 hour. The monolayers were then fixed (20 minutes at RT) with 80% methanol (J T Baker; Phillipsburg, N.J.). […] Thereafter, the monolayers were incubated (1 hour at RT) with streptavidin-HRP (Zymed; San Francisco, Calif.). The wells were developed with TMB One-Step Substrate Solution (DAKO; Carpinteria, Calif.). Optical density was determined (450 nm, reference at 550 nm) with a Molecular Devices Versamax microplate reader (Sunnyvale, Calif.).

[3] = system: RSV A2; experiment: Inhibition of RSV infectivity in vitro, plaque assay on HEp-2 cell monolayers; type: cell-based, respiratory syncytial virus (RSV); conditions: for effect on RSV infectivity (in words): prior exposure (1 hour) of HEp-2 cells to recombinant chemokine, up to 10 μg/ml
Protocol: Inhibition of virus infectivity in vitro. HEp-2 cell monolayers were grown in 96-well tissue culture plates (Falcon, Becton Dickson and Co.; Franklin Lakes, N.J.) with complete medium. The monolayers were pre-treated for 1 hour at 4° C. or 37° C. in triplicate wells with the indicated amounts of recombinant chemokine or anti-chemokine receptor antibody. After removal of chemokine or antibody, the monolayers were infected 1 hour at the same temperature with the denoted wild type or mutant RSV strain and then overlaid with 2% Sephadex (Amersham Biosciences; Piscataway, N.J.). Anti-viral activity was also assessed 1 hour after the cells were infected, or following simultaneous exposure of the monolayers to virus in a 1:1 mixture with the indicated doses of chemokines or CCL5 peptides. The inhibitory properties of the anti-chemokine receptor antibodies were tested alone or in combination at doses ranging from 5 to 100 μg/ml culture medium.
as §1

[4] = Table 16 Exp. 1, 250 μg/dose, simultaneously admixed with RSV A2, four days
[5] = Table 16 Exp. 1, 500 μg/dose, simultaneously admixed with RSV A2, intranasal, lungs four days later
[6] = Table 17, 500 μg, Simultaneous with RSV A2, four days
[7] = all experiments at the 500 μg/dose
[8] = Table 10, 1 μg/ml, exposed 1 hour before infection, plaques after 3 days
[9] = Table 10, 5 μg/ml, exposed 1 hour before infection, plaques after 3 days
[10] = Table 10, 10 μg/ml, exposed 1 hour before infection, plaques after 3 days, relative to control wells (100%)
[11] = Table 11, 1 μg/ml, exposed 1 hour before infection, plaques after 3 days
[12] = Table 11, 5 μg/ml, exposed 1 hour before infection, plaques after 3 days
[13] = Table 11, 10 μg/ml, exposed 1 hour before infection, plaques after 3 days
[14] = Table 12, 10 μg/ml, 1 hour after removal of RSV A2 (POST)
[15] = Table 12, 10 μg/ml, 1 hour prior to infection (PRE)

Molecule: SPYSSDTTPCCFAYI (listed as Homo sapiens) [Peptide 1, CCL5 amino acids 1-15]
- average reduction in virus load ([1]; 300 μg or more, five experiments): 2.4 log10
- inhibition of RSV infection in vivo (in words) [1]: most inhibitory in vivo
- RSV/Gram Lung Tissue (log10) ([1]; Table 16 Exp. 1, 125 μg/dose, simultaneously admixed with RSV A2, four days): 4.6 ± 0.2 log10
- RSV/Gram Lung Tissue (log10) [1, 4]: 4.3 ± 0.2 log10
- RSV/Gram Lung Tissue (log10) [1, 5]: 1.8 ± 0.1 log10
- RSV/Gram Lung Tissue (log10) ([1]; Table 16 Exp. 2, 300 μg/dose, simultaneously admixed with RSV A2, four days): 4.0 ± 0.1 log10
- RSV/Gram Lung Tissue (log10) ([1]; Table 16 Exp. 2, 400 μg/dose, simultaneously admixed with RSV A2, four days): 3.8 ± 0.1 log10
- RSV/Gram Lung Tissue (log10) ([1]; Table 16 Exp. 2, 500 μg/dose, simultaneously admixed with RSV A2, four days): 3.1 ± 0.1 log10
- RSV/Gram Lung Tissue (log10) ([1]; Table 17, 500 μg, 1 hour after infection (Post), four days): 5.3 ± 0.2 log10
- RSV/Gram Lung Tissue (log10) ([1]; Table 17, 500 μg, 1 hour before infection (Pre), four days): 3.5 ± 0.6 log10
- RSV/Gram Lung Tissue (log10) [1, 6]: 1.9 ± 0.2 log10
- virus load diminished, fold ([1]; administered 1 hour before infection): more than 50 fold
- binding to the epithelial cell monolayer (in words) [2]: readily bound to the epithelial cell monolayer

Molecule: TPCCFAYIARPLPRA (listed as Homo sapiens) [Peptide 2, CCL5 amino acids 8-22]
- average reduction in virus load [1, 7]: 0.9 log10

Molecule: TRKNRQVCANPEKKW (listed as Homo sapiens) [Peptide 7, CCL5 amino acids 43-57]
- RSV/Gram Lung Tissue (log10) [1, 5]: 4.6 ± 0.1 log10
- RSV/Gram Lung Tissue (log10) [1, 6]: 3.8 ± 0.1 log10
- average reduction in virus load [1, 7]: 1.1 log10

Molecule: EKKWVREYINSLEMS (listed as Homo sapiens) [Peptide 9, CCL5 amino acids 54-68]
- RSV/Gram Lung Tissue (log10) [1, 4]: 3.7 ± 0.1 log10
- average reduction in virus load [1, 7]: 1.4 log10
- reduced infectivity, fold [1]: approximately 10 fold

Molecule: NC(=O)CN(CC(N)=O)S(=O)(=O)c1cccc(Nc2nc(Nc3cccc(S(=O)(=O)N(CC(N)=O)CC(N)=O)c3)nc(Nc3ccc(-c4ccc(Nc5nc(Nc6cccc(S(=O)(=O)N(CC(N)=O)CC(N)=O)c6)nc(Nc6cccc(S(=O)(=O)N(CC(N)=O)CC(N)=O)c6)n5)cc4S(=O)(=O)O)c(S(=O)(=O)O)c3)n2)c1 [RFI-641, reference compound]
- inhibition of RSV infection in vivo (in words) [1]: inhibitory against RSV infection
- RSV/Gram Lung Tissue (log10) ([1]; Table 16 Exp. 1, 25 μg/dose, simultaneously admixed with RSV A2, four days): 2.7 ± 0.2 log10
- RSV/Gram Lung Tissue (log10) ([1]; Table 16 Exp. 2, 25 μg/dose, simultaneously admixed with RSV A2, four days): 2.7 ± 0.3 log10

Molecule: AHIKEYFYTSGKCSN (listed as Homo sapiens) [Peptide 4, CCL5 amino acids 22-36]
- average reduction in virus load [1, 7]: 1.2 log10

Molecule: CANPEKKWVREYINS (listed as Homo sapiens) [Peptide 8, CCL5 amino acids 50-64]
- RSV/Gram Lung Tissue (log10) [1, 5]: 3.6 ± 0.03 log10
- average reduction in virus load [1, 7]: 1.0 log10
- reduced infectivity, fold [1]: approximately 10 fold

Molecule: PAVVFVTRKNRQVC (listed as Homo sapiens) [Peptide 6, CCL5 amino acids 37-50]
- average reduction in virus load [1, 7]: 0.5 log10

Molecule: CCL11: recombinant human chemokine CCL11 (eotaxin)
- Percent Infectivity [3, 8]: 94.4 ± 4.8%
- Percent Infectivity [3, 9]: 93.1 ± 12.7%
- Percent Infectivity [3, 10]: 94.4 ± 4.8%
- effect on RSV infectivity (in words) [3]: did not impair RSV infectivity

B1: CCL3: recombinant human chemokine CCL3 (MIP-1α) (protein, UniProt P10147 24-92, looked up)
C-C motif chemokine 3: SLAADTPTACCFSYTSRQIPQNFIADYFETSSQCSKPGVIFLTKRSRQVCADPSEEWVQKYVSDLELSA
- Percent Infectivity [3, 8]: 95.8 ± 11.0%
- Percent Infectivity [3, 9]: 97.2 ± 8.7%
- Percent Infectivity [3, 10]: 86.1 ± 2.4%
- Percent Infectivity [3, 11]: 103.0 ± 3.0%
- Percent Infectivity [3, 12]: 98.0 ± 1.0%
- Percent Infectivity [3, 13]: 91.0 ± 5.0%
- Percent Infectivity [3, 14]: 104 ± 7%
- Percent Infectivity [3, 15]: 91 ± 10%
- effect on RSV infectivity (in words) [3]: did not impair infectivity

B2: CCL4: recombinant human chemokine CCL4 (MIP-1β) (protein, UniProt P13236 24-92, looked up)
C-C motif chemokine 4: APMGSDPPTACCFSYTARKLPRNFVVDYYETSSLCSQPAVVFQTKRSKQVCADPSESWVQEYVYDLELN
- Percent Infectivity [3, 11]: 104.0 ± 4.0%
- Percent Infectivity [3, 12]: 99.0 ± 9.0%
- Percent Infectivity [3, 13]: 98.0 ± 5.0%
- effect on RSV infectivity (in words) [3]: did not impair infectivity

B3: CCL8: recombinant human chemokine CCL8 (MCP-2) (protein, UniProt P80075 24-99, looked up)
C-C motif chemokine 8: QPDSVSIPITCCFNVINRKIPIQRLESYTRITNIQCPKEAVIFKTKRGKEVCADPKERWVRDSMKHLDQIFQNLKP
- Percent Infectivity [3, 8]: 88.9 ± 6.4%
- Percent Infectivity [3, 9]: 100.0 ± 0.0%
- Percent Infectivity [3, 10]: 94.4 ± 10.5%
- effect on RSV infectivity (in words) [3]: did not impair RSV infectivity

B4: CCL15: recombinant human chemokine CCL15 (MIP-1δ) (protein, UniProt Q16663 22-113, looked up)
C-C motif chemokine 15: QFTNDAETELMMSKLPLENPVVLNSFHFAADCCTSYISQSIPCSLMKSYFETSSECSKPGVIFLTKKGRQVCAKPSGPGVQDCMKKLKPYSI
- Percent Infectivity [3, 14]: 93 ± 4%
- Percent Infectivity [3, 15]: 97 ± 8%
- effect on RSV infectivity (in words) [3]: did not impair RSV infectivity
